The record followed here is article PMC4937426, “Dcsbis (PA2771) from Pseudomonas aeruginosa is a highly active diguanylate cyclase with unique activity regulation” (Scientific Reports, 2016).

The Km is the concentration of substrate that gives half-maximal velocity.

One series addresses WspR (Pseudomonas aeruginosa, UniProt Q9HXT9). Briefly: coupled spectrophotometric pyrophosphate assay. The class given is biochemical. The following applies: turnover only, same molar concentration as Dcsbis.
In series [1] the target is T1, Dcsbis-GGDEF; Dcsbis (173-341) (Pseudomonas aeruginosa, UniProt Q9I072).
T1 construct: gene PA2771
T1 sequence (Q9I072 entry or part of it): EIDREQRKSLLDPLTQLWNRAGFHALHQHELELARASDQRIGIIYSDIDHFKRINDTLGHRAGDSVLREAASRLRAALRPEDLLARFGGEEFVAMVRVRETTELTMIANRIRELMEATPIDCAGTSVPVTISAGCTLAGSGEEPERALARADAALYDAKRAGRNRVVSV
Briefly: coupled spectrophotometric pyrophosphate assay. Type of series: biochemical. The following applies: turnover only (residual activity).

Series [2] deals with T1, Dcsbis-GGDEF; Dcsbis (173-341). Description: X-ray crystal structure, […] Å. The class given is binding. The following applies: I-site; two mutually intercalated c-di-GMP molecules bridging a GGDEF dimer; Arg251, Asp254, Arg271, Arg282.
Series [3] concerns the target T2, Dcsbis (PA2771), full-length (Pseudomonas aeruginosa, UniProt Q9I072).
T2 construct: homodimer
Briefly: coupled spectrophotometric pyrophosphate assay, Lineweaver-Burk with […] c-di-GMP. The class given is biochemical. The following applies: GTP substrate; product inhibition, mainly competitive; Ki not given.

The subject of series [4] is Nc1nc2c(ncn2[C@@H]2O[C@H](COP(=O)(O)OP(=O)(O)OP(=O)(O)O)[C@@H](O)[C@H]2O)c(=O)[nH]1. Description: purified protein. The following applies: without c-di-GMP; 128-512 μM GTP.

T2 sequence (Q9I072 entry or part of it): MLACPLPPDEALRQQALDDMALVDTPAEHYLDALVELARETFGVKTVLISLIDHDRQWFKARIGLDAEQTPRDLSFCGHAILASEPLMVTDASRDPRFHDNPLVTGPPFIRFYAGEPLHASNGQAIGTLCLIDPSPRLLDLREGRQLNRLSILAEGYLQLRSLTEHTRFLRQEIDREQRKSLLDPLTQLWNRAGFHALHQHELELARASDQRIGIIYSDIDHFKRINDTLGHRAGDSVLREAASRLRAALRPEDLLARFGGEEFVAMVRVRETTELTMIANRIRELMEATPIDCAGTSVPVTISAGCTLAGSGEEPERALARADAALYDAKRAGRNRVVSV
Sequence of WspR (Q9HXT9 entry or part of it): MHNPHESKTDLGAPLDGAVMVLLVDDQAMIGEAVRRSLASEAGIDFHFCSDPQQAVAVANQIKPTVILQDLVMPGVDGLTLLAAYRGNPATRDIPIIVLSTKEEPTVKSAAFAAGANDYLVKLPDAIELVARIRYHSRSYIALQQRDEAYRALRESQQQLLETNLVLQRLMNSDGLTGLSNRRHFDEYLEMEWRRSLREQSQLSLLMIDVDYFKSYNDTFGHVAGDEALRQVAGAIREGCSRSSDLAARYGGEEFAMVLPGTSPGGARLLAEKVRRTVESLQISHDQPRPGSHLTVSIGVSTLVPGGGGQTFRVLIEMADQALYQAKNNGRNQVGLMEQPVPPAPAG

As for `Nc1nc2c(ncn2[C@@H]2O[C@H](COP(=O)(O)OP(=O)(O)OP(=O)(O)O)[C@@H](O)[C@H]2O)c(=O)[nH]1` [GTP], the “coupled spectrophotometric pyrophosphate assay” value at WspR is recorded as “DGC activity assays were performed for the three proteins at the same molar concentration”; in series [1], “the GGDEF domain of Dcsbis, compared with the full-length Dcsbis, exhibited only residual DGC activity”.

As for `Nc1nc2c(ncn2[C@@H]2O[C@@H]3COP(=O)(O)O[C@H]4[C@@H](O)[C@H](n5cnc6c(=O)[nH]c(N)nc65)O[C@@H]4COP(=O)(O)O[C@H]3[C@H]2O)c(=O)[nH]1` [c-di-GMP], the “X-ray crystal structure, 2.5 Å” value in series [2] is reported as “This extra density may be explained by building in two mutually intercalated c-di-GMP molecules”. Further, the “coupled spectrophotometric pyrophosphate assay, Lineweaver-Burk with 50 μM c-di-” value in series [3] is “The greatly increased Km suggests that c-di-GMP mainly binds to the active site”.

Regarding “Dcsbis (PA2771), full-length (Pseudomonas aeruginosa PAO1)”, the Km in series [4] was 88 µM.
